Test results: US20230053649A1 (Cedilla Therapeutics, Inc., priority 2021, published 2023)

Tests used:
[1] = target: TEAD1 protein (YAP Binding Domain) (Homo sapiens, UniProt P28347); assay: biochemical
Method: Compound Displacement Assay.
A TEAD1 lipid pocket displacement assay was carried out according to the following protocol. Purified His-tagged TEAD1 protein (YAP Binding Domain) was pre-mixed with a Cy5-probe (Cy5-conjugated to a small molecule that binds in the TEAD1 lipid pocket) and Terbium-labeled anti-His antibody (Cisbio Cat 61HI2TLB). The binding of the Cy5-probe to anti-His-Tb/His-tag TEAD1 complex yielded a TR-FRET signal. […] After 60 minutes incubation at room temperature of compounds with the His-TEAD1/anti-His-Tb/Cy5-probe complex, the plate was read on a plate reader (BMG ClarioStar Cat 430-1300) using TR-FRET mode with wavelengths of 665 nm/620 nm. The potency of compounds as TEAD1 lipid pocket binders was determined by IC50 value generated using a non-linear 4 parameter curve fit.

[2] = test system: mesothelioma cell line NCI-H226; assay: 72H TEAD Proliferation Assay (Cell Titer-Glo 2.0); type: cell-based; conditions: Homo sapiens, CTG 2.0, cell line not given in Table 1 (NCI-H226 TEAD-responsive, NCI-H28 non-responsive counter-screen)
Method: 72H TEAD Proliferation Assay.
The effect of TEAD inhibition on cell proliferation was assayed using Cell Titer Glo (CTG) 2.0 to measure response in mesothelioma cell lines NCI-H226 (ATCC, #CRL-5826) and NCI-H28 (ATCC, #CRL-5820).
The 72H TEAD Proliferation assay utilizes Cell Titer-Glo 2.0 (Promega, #G9243) to measure the proliferation of cells in the presence or absence of compound. Cell Titer-Glo 2.0 determines the amount of viable cells by quantifying ATP (an indication of metabolically active cells). It utilizes the conversion of Luciferin to Oxyluciferin and a luminescent signal with the use of ATP to report the quantity of viable cells in culture. Within cells that are continually growing, ATP is being synthesized to meet their metabolic demands, meanwhile the opposite is true for cells that are dying or slowing down their proliferation and either no longer using ATP or are using less, respectively. The NF2-deficient NCI-H226 has been genetically validated as a cell line that is sensitive to TEAD inhibition. The NF2-wild type NCI-H28 has been genetically validated as a cell line that is not sensitive to TEAD inhibition and grows independently of TEAD activity.
Compounds were screened against the responsive NCI-H226 cell line to assess the compounds' ability to inhibit TEAD and cell growth. Compounds were also screened against the non-responsive NCI-H28 cell line to ascertain whether the inhibition of cell growth was due to inhibition of the target TEAD or whether the inhibition was due to off-target cytotoxicity.
Both NCI-H226 and NCI-H28 cells were grown at 37° C. with 5% CO2 using Growth Medium 1.
Anti-proliferative effect of compounds that inhibits TEAD activity measured by CTG
1) Assay ready plates (ARPs) were prepared by Echo acoustic liquid handler. For each compound, duplicate of 10-point half-log dilution series were dispensed in a 384-well microplate (Corning 3571).
3) Before use, ARPs were allowed to warm up to room temperature for 30 min.
4) ARPs were spun for 5 minutes at 1500RPM before removing the plate seals.
5) NCI-H226 or NCI-H28 cells were harvested from culture in Assay Medium 1 and the multidrop Combi reagent dispenser was used to seed cells at 500 cells per 50ul in each well of the ARPs and one Corning 3571 plate without compounds for Time 0 (TO) readout.
6) The TO plate was incubated for 2 hours at 37° C. with 5% CO2 to allow cells to settle, then the CTG Assay was performed.
7) All ARPs were incubated for 72 hours at 37° C. with 5% CO2, then the CTG Assay was performed for Time 72H (T72) readout.
8) CTG Assay: Bravo liquid handler (Agilent) was used to add 25ul of CTG 2.0 to all columns of the plate except for Column 24, which was used to subtract out the background. After CTG addition, plates were placed on shaker at 800RPM for 15 minutes at room temperature and kept in the dark. Luminescence was measured using EnVision multilabel plate reader with ultra-sensitive detection module.
9) Data Analysis: First background luminescence (no CTG wells) was subtracted from luminescence reading of all wells, then TO luminescence was subtracted from T72 luminescence. To compare anti-proliferative effect of compounds, GI50 was obtained by fitting dose response curves with nonlinear regression curve fit.

TEAD1 protein (YAP Binding Domain), sequence (P28347 167-426 limits assumed): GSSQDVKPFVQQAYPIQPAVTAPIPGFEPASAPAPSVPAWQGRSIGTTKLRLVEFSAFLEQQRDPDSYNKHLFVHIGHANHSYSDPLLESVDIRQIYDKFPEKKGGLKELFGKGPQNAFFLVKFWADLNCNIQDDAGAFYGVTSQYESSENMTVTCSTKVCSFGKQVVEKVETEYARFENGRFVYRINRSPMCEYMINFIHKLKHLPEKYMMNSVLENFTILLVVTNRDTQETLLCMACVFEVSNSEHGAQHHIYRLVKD

| Compound | IC50 [1] [nM] | GI50 [2] [nM] |
| --- | --- | --- |
| CC(CO)NC(=O)c1ccc2c(OCC3CCC(F)(F)CC3)cccc2c1 (stereo not drawn) [Compound I-22, 5-((4,4-Difluorocyclohexyl)methoxy)-N-(1-hydroxypropan-2-yl)-2-naphthamide] | 150 to 300 | ≤ 500 |
| Cc1cc2cc(C(=O)N[C@H](C)CO)ccc2c(N2CCC(C(F)(F)F)CC2)n1 [Compound I-48, (R)-N-(1-hydroxypropan-2-yl)-3-methyl-1-(4-(trifluoromethyl)piperidin-1-yl)isoquinoline-6-carboxamide] | 150 to 300 | ≤ 500 |
| COc1cc(-c2ccc(OC(C)(C)C)cc2)c2ncc(C(=O)N[C@H](C)CO)cc2c1 [Compound I-16, (R)-8-(4-(tert-butoxy)phenyl)-N-(1-hydroxypropan-2-yl)-6-methoxyquinoline-3-carboxamide] | 150 to 300 | 1000 to 5000 |
| C[C@H](NC(=O)c1ccc2c(N3CCC(C(F)(F)F)CC3)cccc2c1)c1ccccn1 [Compound I-58, (S)-N-(1-(pyridin-2-yl)ethyl)-5-(4-(trifluoromethyl)piperidin-1-yl)-2-naphthamide] | < 150 | ≤ 500 |
| COc1cc(N2CCC(C(F)(F)F)CC2)c2ncc(C(=O)NC(C)C)cc2c1 [Compound I-38, N-isopropyl-6-methoxy-8-(4-(trifluoromethyl)piperidin-1-yl)quinoline-3-carboxamide] | 150 to 300 | ≤ 500 |
| COc1cc(N2CCC(C(F)(F)F)CC2)c2ncc(C(=O)N[C@@H](C)c3cccc(C(=O)O)c3)cc2c1 [Compound I-43, (S)-3-(1-(6-methoxy-8-(4-(trifluoromethyl)piperidin-1-yl)quinoline-3-carboxamido)ethyl)benzoic acid] | < 150 | > 5000 |
| COc1cccc([C@H](C)NC(=O)c2cnc3c(N4CCC(C(F)(F)F)CC4)cc(OC)cc3c2)c1 [Compound I-39, (S)-6-methoxy-N-(1-(3-methoxyphenyl)ethyl)-8-(4-(trifluoromethyl)piperidin-1-yl)quinoline-3-carboxamide] | > 500 | ≤ 500 |
| C[C@H](CO)NC(=O)c1cnc2c(N3CCC4(CC3)CC4)cc(OC3CC3)cc2c1 [Compound I-25, (R)-6-cyclopropoxy-N-(1-hydroxypropan-2-yl)-8-(6-azaspiro[2.5]octan-6-yl)quinoline-3-carboxamide] | > 500 | 1000 to 5000 |
| COc1cc(N2CCC3(CC2)CC(F)(F)C3)c2ncc(C(=O)N[C@H](C)CO)cc2c1 [Compound I-6, (R)-8-(2,2-difluoro-7-azaspiro[3.5]nonan-7-yl)-N-(1-hydroxypropan-2-yl)-6-methoxyquinoline-3-carboxamide] | < 150 | 500 to 1000 |
| COc1cc2cc(C(=O)N[C@@H](C)c3ccccn3)ccc2c(N2CCC(C(F)(F)F)CC2)n1 [Compound I-64, (S)-3-methoxy-N-(1-(pyridin-2-yl)ethyl)-1-(4-(trifluoromethyl)piperidin-1-yl)isoquinoline-6-carboxamide] | < 150 | ≤ 500 |
| O=C(O)c1ccc2c(N3CCC(C(F)(F)F)CC3)cccc2c1 [Compound I-57, 5-(4-(Trifluoromethyl)piperidin-1-yl)-2-naphthoic acid] | 150 to 300 | > 5000 |
| COc1cc(N2CCC(C(F)(F)F)CC2)c2ncc(C(=O)N[C@@H](C)C(=O)O)cc2c1 [Compound I-41, (6-methoxy-8-(4-(trifluoromethyl)piperidin-1-yl)quinoline-3-carbonyl)-L-alanine] | 150 to 300 | > 5000 |
| COc1cc(-c2ccc(Oc3ccccc3)cc2)c2ncc(C(=O)N[C@H](C)CO)cc2c1 [Compound I-19, (R)-N-(1-hydroxypropan-2-yl)-6-methoxy-8-(4-phenoxyphenyl)quinoline-3-carboxamide] | 150 to 300 | > 5000 |
| CC[C@H](CO)NC(=O)c1ccc2c(-c3ccc(C(F)(F)F)cc3)nc(OC)cc2c1 [I″-53, (R)-N-(1-hydroxybutan-2-yl)-3-methoxy-1-(4-(trifluoromethyl)phenyl)isoquinoline-6-carboxamide] | < 150 | ≤ 500 |
| CC(CO)NC(=O)c1ccc2c(OCc3ccc(C(F)(F)F)cc3)cccc2c1 (stereo not drawn) [Compound I-44, N-(1-hydroxypropan-2-yl)-5-((4-(trifluoromethyl)benzyl)oxy)-2-naphthamide] |  | > 5000 |
| CC(CO)NC(=O)c1cnc2c(OCC3CCC(F)(F)CC3)cccc2c1 (stereo not drawn) [Compound I-47, 8-((4,4-difluorocyclohexyl)methoxy)-N-(1-hydroxypropan-2-yl)quinoline-3-carboxamide] | > 500 | > 5000 |
| COc1ccc2c(N3CCC(C(F)(F)F)CC3)nc(C(=O)O)cc2c1 [Compound 68, 6-methoxy-1-(4-(trifluoromethyl)piperidin-1-yl)isoquinoline-3-carboxylic acid] | > 500 | > 5000 |
| COc1cc(N2CCC(C(F)(F)F)CC2)c2ncc(C(=O)N[C@@H](C)COC(F)(F)F)cc2c1 [Compound I-12, (S)-6-methoxy-N-(1-(trifluoromethoxy)propan-2-yl)-8-(4-(trifluoromethyl)piperidin-1-yl)quinoline-3-carboxamide] | > 500 | ≤ 500 |
| COc1cc(N2CCC(C(F)(F)F)CC2)c2ncc(C(=O)N[C@@H](C)c3ccccn3)cc2c1 [Compound I-37, (S)-6-methoxy-N-(1-(pyridin-2-yl)ethyl)-8-(4-(trifluoromethyl)piperidin-1-yl)quinoline-3-carboxamide] | 150 to 300 | ≤ 500 |
| COc1ccc2c(N3CCC(C(F)(F)F)CC3)nc(C(=O)N[C@H](C)CO)cc2c1 [Compound 67, (R)-N-(1-hydroxypropan-2-yl)-6-methoxy-1-(4-(trifluoromethyl)piperidin-1-yl)isoquinoline-3-carboxamide] | > 500 | > 5000 |
| COc1cc(-c2ccc(OCC(F)(F)F)cc2)c2ncc(C(=O)N[C@H](C)CO)cc2c1 [Compound I-18, (R)-N-(1-hydroxypropan-2-yl)-6-methoxy-8-(4-(2,2,2-trifluoroethoxy)phenyl)quinoline-3-carboxamide] | 150 to 300 | 1000 to 5000 |
| CC[C@H](CO)NC(=O)c1cnc2c(N3CCC(C(F)(F)F)CC3)cc(OC)cc2c1 [Compound I-13, (R)-N-(1-hydroxybutan-2-yl)-6-methoxy-8-(4-(trifluoromethyl)piperidin-1-yl)quinoline-3-carboxamide] | < 150 | ≤ 500 |
| COc1cc(N2CCC(C(F)F)CC2)c2ncc(C(=O)N[C@H](C)CO)cc2c1 [Compound I-7, (R)-8-(4-(difluoromethyl)piperidin-1-yl)-N-(1-hydroxypropan-2-yl)-6-methoxyquinoline-3-carboxamide] | 150 to 300 | 1000 to 5000 |
| COC[C@H](C)NC(=O)c1cnc2c(N3CCC(CC(F)(F)F)CC3)cc(OC)cc2c1 [Compound I-5, (S)-6-methoxy-N-(1-methoxypropan-2-yl)-8-(4-(2,2,2-trifluoroethyl)piperidin-1-yl)quinoline-3-carboxamide] | < 150 | 1000 to 5000 |
| COc1cc(N2CCC(C(F)(F)F)CC2)c2ncc(C(=O)NC(C)(C)CO)cc2c1 [Compound I-10, N-(1-hydroxy-2-methylpropan-2-yl)-6-methoxy-8-(4-(trifluoromethyl)piperidin-1-yl)quinoline-3-carboxamide] | 300 to 500 | 1000 to 5000 |
| COc1cc(-c2ccc(OC(F)(F)F)cc2F)c2ncc(C(=O)N[C@H](C)CO)cc2c1 [Compound I-21, (R)-8-(2-fluoro-4-(trifluoromethoxy)phenyl)-N-(1-hydroxypropan-2-yl)-6-methoxyquinoline-3-carboxamide] |  | ≤ 500 |
| C[C@H](CO)NC(=O)c1cnc2c(N3CCC4(CC3)CC4)cc(OC(F)F)cc2c1 [Compound I-27, (R)-6-(difluoromethoxy)-N-(1-hydroxypropan-2-yl)-8-(6-azaspiro[2.5]octan-6-yl)quinoline-3-carboxamide] |  | 1000 to 5000 |
